In US9303000B2, “Olefin containing nuclear transport modulators and uses thereof” (KARYOPHARM THERAPEUTICS INC., priority 2011, dated 2016):
Where two headings read alike, the source gives them in different places. Values belong to the molecule of their own block, whether it stands above or below them.

Tests used:
HCT-116 tumor cells = test: HCT-116 colorectal carcinoma xenograft model; type: in vivo, mice
Protocol: FIG. 1 is a graph depicting the results of an HCT-116 colorectal carcinoma xenograft model. HCT-116 cells were inoculated into female athymic Balb c. nu^+/nu^+ mice. Once tumors reached an average volume of 200 mm^3, the animals were dosed with vehicle, 25 mg/kg 5-fluorouracil intraperitoneally and 75 mg/kg I-29 subcutaneously.
FIG. 2 is a graph depicting the results of an HCT-116 colorectal carcinoma xenograft model. HCT-116 cells were inoculated into female athymic Balb c. nu^+/nu^+ mice. Once tumors reached an average volume of 100 mm^3 the animals were dosed with vehicle, 50 mg/kg 5-fluorouracil intraperitoneally and 50 and 100 mg/kg I-34 orally. […] Mice were euthanized on Day 26 due to 20% weight loss. At Day 37, I-34 administered QDX5/week at 50 mg/kg inhibited tumor growth by 85%.
Female balb c nude mice (nu/nu) aged 6 to 8 weeks were obtained from Charles River Laboratories and were randomly and prospectively divided into six groups of ten mice. Mice were inoculated s.c. in flanks with 1×10^6 HCT-116 tumor cells. When cells reached 100-200 mm^3, animals were randomized into treatment groups of 5-10 mice each, excluding mice with the largest and smallest tumors. Mice were treated with vehicle, standard of care drugs (5-FU) or compounds of the invention at the indicated doses and regimen. Animals' weights and condition were recorded daily, and tumors were measured daily. On Day 37 (2 hours after the final dose), all mice were sacrificed, plasma and tumor tissue were collected for PK/PD analysis. Tumors were divided in 4 sections (3, flash-frozen in separate vials and 1 fixed in formalin for paraffin block preparation).
HCT-116 Colorectal tumor cells (ATCC# CCL-247) were grown in the DMEM tissue culture media with 10% fetal bovine serum and 1% penicillin/streptomycin. Cells were routinely trypsinized and passaged 1:4. On the day of implantation, cells were washed in PBS, trypsinized and resuspended in complete media. Cells were washed 3× in serum free medium. Cells were resuspended to a density of 1×10^7 cells/ml prior to being implanted s.c. into mice in a volume of 0.1 mL using a 23G needle.
Tumors were monitored daily. Tumors appearing exceeding 1500 mm^3 were measured, and animals with tumors greater than 1500 mm^3 and/or tumors that became necrotic and/or hindered movement were euthanized. Tumors were measured twice weekly by measuring each tumor in 2 dimensions, along the largest dimension (length, L) and perpendicular to this dimension (width, W). Tumor weights were calculated using the standard formula: (L×W^2)/2. The mean tumor weight and standard error of the mean were calculated for each group at each time point.
Statistical differences between treatment groups were determined using appropriate statistical techniques. A one-way ANOVA or ANOVA on ranks was used to evaluate the area-under the curve for weight gain and tumor volume.

Crm1 [1] = molecular target: T1, Crm1 (Homo sapiens, UniProt O14980); test: Inhibition of nuclear export (RevGFP assay) / MTT cytotoxicity, Table 1
T1 sequence (O14980 whole entry): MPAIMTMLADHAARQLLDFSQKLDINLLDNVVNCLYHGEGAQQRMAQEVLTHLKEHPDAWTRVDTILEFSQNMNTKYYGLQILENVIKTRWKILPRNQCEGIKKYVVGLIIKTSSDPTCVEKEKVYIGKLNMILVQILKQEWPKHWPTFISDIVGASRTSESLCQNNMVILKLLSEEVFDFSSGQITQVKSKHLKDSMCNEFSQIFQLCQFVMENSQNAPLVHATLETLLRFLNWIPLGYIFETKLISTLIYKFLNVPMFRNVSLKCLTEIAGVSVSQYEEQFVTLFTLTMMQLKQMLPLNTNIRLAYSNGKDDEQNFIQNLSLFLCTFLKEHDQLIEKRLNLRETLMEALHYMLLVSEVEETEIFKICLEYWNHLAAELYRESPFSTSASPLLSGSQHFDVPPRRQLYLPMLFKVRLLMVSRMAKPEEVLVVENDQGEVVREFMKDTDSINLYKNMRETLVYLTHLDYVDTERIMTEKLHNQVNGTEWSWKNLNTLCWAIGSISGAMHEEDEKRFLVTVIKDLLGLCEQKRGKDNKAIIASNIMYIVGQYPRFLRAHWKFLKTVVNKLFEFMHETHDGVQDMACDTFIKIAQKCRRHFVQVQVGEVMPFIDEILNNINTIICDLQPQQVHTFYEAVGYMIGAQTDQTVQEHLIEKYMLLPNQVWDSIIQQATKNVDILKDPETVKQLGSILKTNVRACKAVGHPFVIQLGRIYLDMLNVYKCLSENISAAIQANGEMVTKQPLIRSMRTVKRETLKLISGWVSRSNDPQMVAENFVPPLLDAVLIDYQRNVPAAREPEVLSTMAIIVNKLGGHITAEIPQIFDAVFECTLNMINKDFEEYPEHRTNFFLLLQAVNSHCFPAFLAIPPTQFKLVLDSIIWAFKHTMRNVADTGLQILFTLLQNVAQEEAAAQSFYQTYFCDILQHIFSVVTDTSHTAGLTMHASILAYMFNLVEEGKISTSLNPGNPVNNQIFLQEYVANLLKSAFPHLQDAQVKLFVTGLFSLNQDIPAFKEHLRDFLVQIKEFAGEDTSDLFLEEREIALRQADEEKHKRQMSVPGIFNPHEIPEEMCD
Protocol: (§1) The evaluation of the affinity of compounds for the Crm1 protein was determined in the RevGFP assay.
(§2) In this assay, U2OS-RevGFP cells are seeded onto clear-bottom, black, 384-well plates the day before the experiment. Compounds are serially diluted 1:2 starting from 40 μM in a separate 384-well plate in DMEM, and then transferred onto cells. Cells are incubated with compound for ˜1 hr before fixation with 3.7% formaldehyde and nuclei staining with Hoechst 33258. The amount of GFP in cell nuclei will be measured and compound IC50s determined (Kau et al, 2003).
(§3) The MTT cell proliferation assay was used to study the cytotoxic properties of the compounds. The assay was performed according to the method described by Roche Molecular Biochemicals with minor modifications. The assay is based on the cleavage of the tetrazolium salt, MTT, in the presence of an electron-coupling reagent. The water-insoluble formazan salt produced must be solubilized in an additional step. Cells, grown in a 96-well tissue culture plate, are incubated with the MTT solution for approximately 4 hours. After this incubation period, a water-insoluble formazan dye is formed. After solubilization, the formazan dye is quantitated using a scanning multi-well spectrophotometer (ELISA reader). […] The cells were seeded at 1.5×10^4 cells in each well of 96-well plate in 200 μL of fresh culture medium and were allowed to attach for overnight. The stock solutions of the compounds were diluted in cell culture medium to obtain eight concentrations of each drug, ranging from 1 nM to 20 μM. After 72 h of treatment the medium was aspirated and the cells were washed once with sterile 1×PBS. Each plate contained the samples, negative control and blank. The DMSO at less than 1% v/v was used as a negative control. […] The following formula was used to calculate the percent of inhibition: Inhibition (%)=(1−(ODo/OD))×100.

MM1.S cells = test: MM1.S multiple myeloma xenograft model; type: in vivo, mice
Protocol: FIG. 3 is a graph depicting the results of a MM1.S multiple myeloma model. MM1.S cells were inoculated into female athymic Balb c. nu^+/nu^+mice. Once tumors reached an average volume of 780 mm^3 the animals were dosed with vehicle and 75 mg/kg I-1 subcutaneously. Following 3 doses I-1 caused 50% reduction in tumor growth in a statistically significant manner.
FIG. 4 is a graph depicting the results of a MM1.S multiple myeloma model. MM1.S cells were inoculated into female athymic nu^+/nu^+ mice. Once tumors reached an average volume of 1400 mm^3 the animals were dosed with vehicle or 50 mg/kg I-29 subcutaneously every day. On the fourth day of dosing, vehicle group animals (n=10) reached an average volume of 2300 mm^3 and had to be euthanized due to tumor burden and poor health.
105 female athymic nude mice (8-9 weeks old, Harlan, USA) were grouped into […]. Animals were randomized such that the group average tumor volume was between 100-200 mm^3. Group average body weights were matched as closely as possible once average tumor volumes were randomized. The live-phase portion of this study will be 28 days in duration from the start of until the average group tumor volume reaches 2,000 mm^3, whichever comes first. Mice are to be euthanized with samples collected as and when they individually reach a tumor volume of approximately 2,000 mm^3.
MM1s Cell Culture. […]
Tumor volumes were monitored three times per week throughout the study (typically Monday, Wednesday and Friday) and calculated using the formula: Tumor volume=½(a^2 b); where a=width (smallest dimension) and b=length. […]
Animals were monitored as a group and their tumor volumes were measured three times per week at the same time of day. […]

Crm1 [2] = molecular target: T1, Crm1
Protocol: as §1, §2, §3

[3] = 50 mg/kg subcutaneously every day, following 8 doses, FIG. 4

condition of animals (HCT-116 tumor cells; 50 mg/kg intraperitoneally, by Day 37, FIG. 2): euthanized due to poor condition
Molecule: O=c1[nH]cc(F)c(=O)[nH]1 [Compound 5-FU, 5-fluorouracil, reference compound]
efficacy on tumor growth (HCT-116 tumor cells; 25 mg/kg intraperitoneally, 3 weeks of dosing, FIG. 1): did not display efficacy
inhibition of tumor growth compared to vehicle group (HCT-116 tumor cells; 50 mg/kg intraperitoneally, Day 37, FIG. 2): no inhibition of tumor growth was observed
inhibition of tumor growth (HCT-116 tumor cells; 50 mg/kg intraperitoneally, first 3 weeks, FIG. 2): inhibited tumor growth during the first 3 weeks in a statistically significant manner

Molecule: COc1cc(-c2ncn(/C=C\c3nnco3)n2)cc(C(F)(F)F)c1 [Compound I-1, (Z)-2-(2-(3-(3-methoxy-5-(trifluoromethyl)phenyl)-1H-1,2,4-triazol-1-yl)vinyl)-1,3,4-oxadiazole]
IC50 (Crm1 [1]): < 1 µM
reduction in tumor growth (MM1.S cells; 75 mg/kg subcutaneously, following 3 doses, FIG. 3): 50%

Molecule: COc1cc(-c2ncn(/C=C\c3nnc(C)o3)n2)cc(C(F)(F)F)c1 [Compound I-2, (Z)-2-(2-(3-(3-methoxy-5-(trifluoromethyl)phenyl)-1H-1,2,4-triazol-1-yl)vinyl)-5-methyl-1,3,4-oxadiazole]
IC50 (Crm1 [1]): < 1 µM

Molecule: COc1cc(-c2ncn(/C=C\c3nnco3)n2)cc(Cl)n1 [Compound I-10, (Z)-2-(2-(3-(2-chloro-6-methoxypyridin-4-yl)-1H-1,2,4-triazol-1-yl)vinyl)-1,3,4-oxadiazole]
IC50 (Crm1 [1]): < 1 µM

Molecule: COc1cc(-c2ncn(/C=C\c3ccccn3)n2)cc(C(F)(F)F)c1 [Compound I-21, (Z)-2-(2-(3-(3-methoxy-5-(trifluoromethyl)phenyl)-1H-1,2,4-triazol-1-yl)vinyl)pyridine]
IC50 (Crm1 [1]): > 10 µM

Molecule: Clc1cccc(-c2ncn(/C=C\c3nnco3)n2)c1 [Compound I-26, (Z)-2-(2-(3-(3-chlorophenyl)-1H-1,2,4-triazol-1-yl)vinyl)-1,3,4-oxadiazole]
IC50 (Crm1 [1]): < 1 µM

Molecule: Clc1cccc(-c2ncn(/C=C/c3nnco3)n2)c1 [Compound I-27, (E)-2-(2-(3-(3-chlorophenyl)-1H-1,2,4-triazol-1-yl)vinyl)-1,3,4-oxadiazole]
IC50 (Crm1 [1]): 1 to 10 µM

Molecule: CC(C)Oc1cc(Cl)cc(-c2ncn(/C=C\c3nnco3)n2)c1 [Compound I-28, (Z)-2-(2-(3-(3-chloro-5-isopropoxyphenyl)-1H-1,2,4-triazol-1-yl)vinyl)-1,3,4-oxadiazole]
IC50 (Crm1 [1]): < 1 µM

Molecule: CC(C)Oc1cc(-c2ncn(/C=C\c3nnco3)n2)cc(C(F)(F)F)c1 [Compound I-29, (Z)-2-(2-(3-(3-isopropoxy-5-(trifluoromethyl)phenyl)-1H-1,2,4-triazol-1-yl)vinyl)-1,3,4-oxadiazole]
IC50 (Crm1 [1]): < 1 µM
animals still alive (survival) (MM1.S cells; [3]): 10 out of 12
reduction in tumor growth (MM1.S cells; [3]): 50%
reduction in tumor growth (HCT-116 tumor cells; 75 mg/kg subcutaneously, 5 times/week, following 3 weeks of dosing, FIG. 1): 50%

Molecule: CC(C)Oc1cc(-c2ncn(/C=C\c3nnco3)n2)cc(C(F)(F)F)n1 [Compound I-30, (Z)-2-(2-(3-(2-isopropoxy-6-(trifluoromethyl)pyridin-4-yl)-1H-1,2,4-triazol-1-yl)vinyl)-1,3,4-oxadiazole]
IC50 (Crm1 [1]): < 1 µM

Molecule: CC(C)Oc1cc(-c2ncn(/C=C\c3nnco3)n2)cc(Cl)n1 [Compound I-31, (Z)-2-(2-(3-(2-chloro-6-isopropoxypyridin-4-yl)-1H-1,2,4-triazol-1-yl)vinyl)-1,3,4-oxadiazole]
IC50 (Crm1 [1]): < 1 µM

Molecule: CS(=O)(=O)c1cc(-c2ncn(/C=C\c3nnco3)n2)cc(C(F)(F)F)c1 [Compound I-33, (Z)-2-(2-(3-(3-(methylsulfonyl)-5-(trifluoromethyl)phenyl)-1H-1,2,4-triazol-1-yl)vinyl)-1,3,4-oxadiazole]
IC50 (Crm1 [1]): < 1 µM

weight loss (HCT-116 tumor cells; 100 mg/kg orally QDX5/week, Day 26, mice euthanized, FIG. 2): 20%
Molecule: FC(F)(F)c1cc(-c2ncn(/C=C\c3nnco3)n2)cc(C(F)(F)F)c1 [Compound I-34, (Z)-2-(2-(3-(3,5-bis(trifluoromethyl)phenyl)-1H-1,2,4-triazol-1-yl)vinyl)-1,3,4-oxadiazole]
IC50 (Crm1 [1]): < 1 µM
inhibition of tumor growth (HCT-116 tumor cells; 50 mg/kg orally QDX5/week, Day 37, FIG. 2): 85%
reduction of tumor growth (HCT-116 tumor cells; 100 mg/kg orally QDX5/week, Day 26, FIG. 2): complete reduction of tumor growth

Molecule: N#Cc1cc(-c2ncn(/C=C\c3nnco3)n2)cc(C(F)(F)F)c1 [Compound I-35, (Z)-3-(1-(2-(1,3,4-oxadiazol-2-yl)vinyl)-1H-1,2,4-triazol-3-yl)-5-(trifluoromethyl)benzonitrile]
IC50 (Crm1 [1]): < 1 µM

Molecule: Oc1cc(-c2ncn(/C=C\c3nnco3)n2)cc(C(F)(F)F)c1 [Compound I-36, (Z)-3-(1-(2-(1,3,4-oxadiazol-2-yl)vinyl)-1H-1,2,4-triazol-3-yl)-5-(trifluoromethyl)phenol]
IC50 (Crm1 [1]): < 1 µM

Molecule: CC(C)Oc1cc(-c2ncn(/C=C\c3ccccn3)n2)cc(C(F)(F)F)c1 [Compound I-37, (Z)-2-(2-(3-(3-isopropoxy-5-(trifluoromethyl)phenyl)-1H-1,2,4-triazol-1-yl)vinyl)pyridine]
IC50 (Crm1 [1]): < 1 µM

Molecule: COc1cc(-c2ncn(/C=C\c3ccccc3)n2)cc(C(F)(F)F)c1 [Compound I-38, (Z)-3-(3-methoxy-5-(trifluoromethyl)phenyl)-1-styryl-1H-1,2,4-triazole]
IC50 (Crm1 [1]): > 10 µM

Molecule: CC(C)Oc1cc(-c2ncn(/C=C\c3ccccc3)n2)cc(C(F)(F)F)c1 [Compound I-39, (Z)-3-(3-isopropoxy-5-(trifluoromethyl)phenyl)-1-styryl-1H-1,2,4-triazole]
IC50 (Crm1 [1]): > 10 µM

IC50 (Crm1 [2]): < 1 µM
Molecule: (Z)-2-(2-(3-(3-chloro-5-(trifluoromethoxy)phenyl)-1H-1,2,4-triazol-1-yl)vinyl)-1,3,4-oxadiazole [Compound I-32]
